Like-named read-outs stand apart in the source and are kept apart here.
Experiments:
P. falciparum 3D7 [1] = system: P. falciparum 3D7; parameters: method as in ChEMBL-NTD; details: ref ChEMBL-NTD, cited from earlier work
P. falciparum 3D7 [2] = experiment: DAPI stain fluorescent high content imaging assay, P. falciparum 3D7 (confirmatory screen, Avery); details: for EC50 / inhibition of growth at 5 µM / inhibition of growth at 2 µM: Plasmodium falciparum; for EC50: 3D7, read-out: EC50_nM; for inhibition of growth at 5 µM: 3D7, read-out: percent_inh @ 5 uM; for inhibition of growth at 2 µM: 3D7, read-out: percent_inh @ 2 uM; for % inh. At 2.5 uM: 2.5 uM (Comment column; solubility issue at 5 uM)
[3] = original screening data, source (GSK, GNF, StJude), several values separated by ';' in order of sources
[4] = values follow the order of the source (GNF; GSK; StJude)

| SMILES | EC50 (P. falciparum 3D7 [2]) [µM] | inhibition of growth at 5 µM (P. falciparum 3D7 [2]) [%] | EC50 (P. falciparum 3D7 [1]; [3]) [µM] | other results |
| --- | --- | --- | --- | --- |
| Nc1ccc(-c2nc3cc(Oc4ccc(Oc5ccc6[nH]c(-c7ccc(N)cc7)nc6c5)cc4)ccc3[nH]2)cc1 [MMV011895] | 0.842 | 97 | – | EC50 (P. falciparum 3D7 [1]; source GNF): 0.288 µM |
| COc1cccc(Nc2nc(NCCO)c3ccccc3n2)c1 [MMV011944] | 0.854 | – | – | EC50 (P. falciparum 3D7 [1]; source GNF): 0.115 µM; EC50 (P. falciparum 3D7 [1]; source GSK): 0.151 µM |
| Cc1cc(NC(=O)c2ccc(-c3ccccc3)cc2)no1 [MMV018984] | 0.693 | 95 | 1.02 | – |
| COCCNCC(O)Cn1c2ccc(Cl)cc2c2cc(Cl)ccc21 (stereo not shown) [MMV019017] | 1.01 | – | 0.052 | – |
| COc1cccc(-c2nn(C)c3sc(C(=O)NCCN4CCN(c5ccccc5F)CC4)cc23)c1 [MMV019064] | 1.3 | 91 | – | EC50 (P. falciparum 3D7 [1]; source GSK): 0.955 µM |
| COc1ccccc1CNC(=O)CCn1c(=O)[nH]c2ccsc2c1=O [MMV019066] | 0.14 | 67 | – | EC50 (P. falciparum 3D7 [1]; source GSK (TCMDC id)): 1.04 µM |
| CCN1CCN(c2cc(C)c3cc(NC(=O)c4ccc(OC)c(OC)c4)ccc3n2)CC1 [MMV019074] | – | 99 | – | EC50 (P. falciparum 3D7 [1]; source GSK): 1.03 µM |
| Cc1cccc(Nc2nc(N)c3ccccc3n2)c1 [MMV019110] | 0.4 | – | – | EC50 (P. falciparum 3D7 [1]; source GSK (TCMDC id)): 0.574 µM; inhibition of growth at 2 µM (P. falciparum 3D7 [2]): 97% |
| CCN(Cc1ccccc1)C1CCN(Cc2cc(Br)ccc2O)CC1 [MMV019127] | 0.625 | 97 | 0.823 | – |
| COc1cccc(Nc2nc(N)c3ccccc3n2)c1 [MMV019199] | 4 | – | – | EC50 (P. falciparum 3D7 [1]; [4]): 0.934 µM; inhibition of growth at 2 µM (P. falciparum 3D7 [2]): 94% |
| CCOc1cccc(C(=O)Nc2ccc(-c3nc4ccccc4[nH]3)cc2)c1 [MMV019202] | – | – | 1.01 | % inh. At 2.5 uM (P. falciparum 3D7 [2]): 97% |
| O=C(Nc1ccc(-c2nc3cc4ccccc4cc3[nH]2)cc1)c1cccc(Br)c1 [MMV019241] | 0.45 | 93 | – | EC50 (P. falciparum 3D7 [1]; source GSK (TCMDC ids)): 0.363 µM |
| COc1ccc(-n2ccnc2SCC(=O)Nc2cc(C)ccc2C)c(OC)c1 [MMV019258] | 0.17 | 95 | – | EC50 (P. falciparum 3D7 [1]; source GSK (TCMDC id)): 0.205 µM |
| Cc1sc2ncnc(Sc3nc4ccccc4[nH]3)c2c1C [MMV019266] | 0.615 | 100 | 0.255 | – |
| Cn1c(=O)c2cc(C(=O)NCCCN3CCCCCC3)sc2c2ccccc21 [MMV019313] | 0.669 | 97 | – | EC50 (P. falciparum 3D7 [1]; source GSK): 0.689 µM |
| CCC1(C)CC(CCNCc2ccccc2O)(c2ccc(C)cc2)CCO1 (stereo not shown) [MMV019406] | 0.142 | 97 | – | EC50 (P. falciparum 3D7 [1]; source GSK (TCMDC id)): 0.0388 µM |
| c1ccc2c(NCCCCCCNc3c4c(nc5ccccc35)CCCC4)c3c(nc2c1)CCCC3 [MMV019555] | 0.376 | 100 | – | EC50 (P. falciparum 3D7 [1]; source GSK (TCMDC ids)): 0.196 µM |
| COc1ccc(N2CCN(C(CNC(=O)C3CCCCC3)c3ccc4c(c3)OCO4)CC2)cc1 (stereo not shown) [MMV019662] | 1.11 | 97 | – | EC50 (P. falciparum 3D7 [1]; source GSK): 0.566 µM |
| O=C(Nc1ccc(N2CCN(Cc3ccccc3)CC2)cc1)c1cccs1 [MMV019670] | 1.07 | 59 | 0.769 | – |
| COc1ccc(C2NCCc3c2[nH]c2ccccc32)cc1CN1CCN(c2ccc(F)cc2)CC1 (stereo not shown) [MMV019690] | 0.934 | 97 | – | EC50 (P. falciparum 3D7 [1]; source GSK (TCMDC ids)): 0.776 µM |
| O=C(Nc1ccc(N2CCCCC2)c(Cl)c1)c1ccc(Br)o1 [MMV019700] | 0.735 | 96 | 0.549 | – |
| Cc1[nH]c(-c2ccc(F)cc2)cc1C(=O)NC1CCN(Cc2ccccc2)CC1 [MMV019738] | 0.771 | 99 | – | EC50 (P. falciparum 3D7 [1]; source GSK): 1.13 µM |
| Cc1ccc(C)c(Cn2c(N3CCC(C(=O)NCc4cccs4)CC3)nc3ccccc32)c1 [MMV019741] | 1.33 | 97 | – | EC50 (P. falciparum 3D7 [1]; source GSK (TCMDC ids)): 0.938 µM |
| Cc1ccc(Cl)cc1N1CCN(CCCNC(=O)C2CCN(c3nc4ccccc4[nH]3)CC2)CC1 [MMV019746] | 1.33 | 97 | – | EC50 (P. falciparum 3D7 [1]; source GSK): 0.895 µM |

| SMILES | EC50 (P. falciparum 3D7 [2]) [µM] | inhibition of growth at 5 µM (P. falciparum 3D7 [2]) [%] | EC50 (P. falciparum 3D7 [1]; [3]) [µM] | other results |
| --- | --- | --- | --- | --- |
| COc1ccc(C(=O)Nc2ccc3nc(N4CCCCC4)cc(C)c3c2)cc1OC [MMV019758] | – | 76 | – | EC50 (P. falciparum 3D7 [1]; source GSK): 0.994 µM |
| COc1cccc(C(=O)Nc2ccc(-c3nc4ccccc4[nH]3)cc2)c1 [MMV019762] | – | 83 | 0.802 | – |
| Cc1cc(C)c2nc(N3CCC(C(=O)NCCCN4CCC(N5CCCCC5)CC4)CC3)sc2c1 [MMV019780] | 0.697 | 98 | – | EC50 (P. falciparum 3D7 [1]; source GSK): 0.838 µM |
| Fc1ccc2[nH]c3c(NCCCN4CCOCC4)ncnc3c2c1 [MMV019871] | 0.345 | 98 | – | EC50 (P. falciparum 3D7 [1]; source GSK (TCMDC id)): 0.714 µM |
| O=C(NC1CCN(Cc2ccccc2)CC1)c1cc(C(=O)NC2CCN(Cc3ccccc3)CC2)cc(C(=O)NC2CCN(Cc3ccccc3)CC2)c1 [MMV019881] | 0.646 | 98 | – | EC50 (P. falciparum 3D7 [1]; [4]): 1.04 µM |
| Clc1cc(Br)ccc1-c1ccc(CNCC2CCNCC2)o1 [MMV019918] | 0.8 | 96 | 1.51 | – |
| O=C(NCCCN1CCC(N2CCCCC2)CC1)C1=Cc2cc(Br)ccc2OC1 [MMV019995] | 0.563 | 99 | – | EC50 (P. falciparum 3D7 [1]; source GSK (TCMDC ids)): 0.853 µM |
| Cc1cc(N(C)C)nc(Nc2ccc(NC(=O)Nc3ccccc3)cc2)n1 [MMV020243] | 1.15 | – | – | EC50 (P. falciparum 3D7 [1]; [4]): 0.134 µM |
| O=C(NC1CCN(Cc2ccccc2)CC1)c1cc(-c2ccncc2)nc2ccc(Cl)cc12 [MMV020275] | 1.02 | 92 | 0.92 | – |
| COc1ccc(-c2cn3c(C(=O)Nc4ccccc4Cl)c(-c4ccccc4)c4c3n2CCCC4)cc1 [MMV020403] | – | 80 | – | EC50 (P. falciparum 3D7 [1]; [4]): 0.792 µM |
| CCn1c(CN2CCN(Cc3ccccc3)CC2)nc2cc(NC(=O)c3cccs3)ccc21 [MMV020439] | 0.512 | 97 | – | EC50 (P. falciparum 3D7 [1]; source GSK (TCMDC id)): 0.402 µM |
| O=C(NC1CCN(Cc2ccccc2)CC1)c1cc(-c2cccnc2)nc2ccc(Cl)cc12 [MMV020490] | 1.01 | 91 | 0.759 | – |
| CC1CN(C(=O)c2sc3ccccc3c2Cl)CC(C)O1 (stereo not shown) [MMV020492] | 0.0255 | 95 | – | EC50 (P. falciparum 3D7 [1]; source GSK (TCMDC id)): 0.0879 µM |
| CNCCCNc1ccnc2cc(Cl)ccc12 [MMV020500] | 0.0822 | 98 | – | EC50 (P. falciparum 3D7 [1]; source GSK (TCMDC id)): 0.0624 µM |
| CN(C)CCCNCc1ccc(-c2ccc(F)c(Cl)c2)o1 [MMV020505] | 0.876 | 96 | – | EC50 (P. falciparum 3D7 [1]; source GSK (TCMDC ids)): 0.802 µM |
| CCN1CCN(Cc2ccc(NC(=O)c3cc4ccc5cccnc5c4[nH]3)cc2)CC1 [MMV020548] | 0.361 | 70 | – | EC50 (P. falciparum 3D7 [1]; source GSK (TCMDC id)): 0.848 µM |
| CC1CCN(Cc2ccc(NC(=O)c3cc4ccc5cccnc5c4[nH]3)cc2)CC1 [MMV020549] | 0.274 | 97 | – | EC50 (P. falciparum 3D7 [1]; source GSK (TCMDC id)): 0.779 µM |
| O=C(Nc1ccc(CN2CCOCC2)cc1)c1ccc(-c2cc(Cl)ccc2Cl)o1 [MMV020651] | 1.95 | 97 | 0.613 | – |
| CCC(O)c1ccc(Br)cc1NC(=O)c1cccc(Cl)c1 (stereo not shown) [MMV020654] | 0.64 | 97 | 1.02 | – |
| COc1ccc(-c2nonc2NC(=O)c2cccc(Cl)c2)cc1OC [MMV020660] | – | – | 0.876 | % inh. At 2.5 uM (P. falciparum 3D7 [2]): 97% |
| CC(=O)Nc1nnc(SCc2c(C)cc(C(C)(C)C)cc2C)s1 [MMV020700] | 0.871 | 96 | 0.704 | – |
| COc1cc(-c2nc(-c3ccccc3)c(-c3ccccc3)[nH]2)cc(OC)c1O [MMV020750] | 1.18 | 97 | – | EC50 (P. falciparum 3D7 [1]; [4]): 0.774 µM |
| Oc1ccccc1CNCC12CC3CC(CC(C3)C1)C2 [MMV020788] | 0.0226 | 96 | – | EC50 (P. falciparum 3D7 [1]; source GSK (TCMDC id)): 0.279 µM |

Source: PMC3684613 (PLoS ONE, 2013)
